These results are taken from patent US8183263B2 (priority 2007, dated 2012).

The assay relates to HCV replicon. Briefly: HCV replicon replication assay (NPT level by captured ELISA). Type of assay: cell-based. Particulars: Hepatitis C virus, 72 h; Huh-7 HCV replicon-containing cells, three days incubation; read-out: Activity (inhibition of HCV replicon replication). Summed up: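 Huh-7 cells carrying HCV subgenomic replicon (NS3–NS5B, neo reporter) treated 3 days at 37 °C with 6 concentrations from 10 to 0.03 micromolar in G418-free medium, equal DMSO across wells. Replication measured on day four as NPTII level by in-cell captured ELISA on fixed cells; interferon alpha as positive control.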
On the technique in general: In antiviral work, replicon cells carry a viral genome segment that copies itself.
`CC(F)(F)c1cc(Nc2nc(-c3cccnc3)c(F)s2)ccc1Oc1ccccc1` [Cmp 82, N-(3-(1,1-difluoroethyl)-4-phenoxyphenyl)-5-fluoro-4-(pyridin-3-yl)thiazol-2-amine]: the EC50 was under 1000 nM. Consider `Fc1ccc(-c2nc(Nc3ccc(OCCCC4CCCC4)c(C(F)(F)F)c3)sc2F)cn1` [Cmp 173, N-(4-(3-cyclopentylpropoxy)-3-(trifluoromethyl)phenyl)-5-fluoro-4-(6-fluoropyridin-3-yl)thiazol-2-amine], for which the EC50 was under 1000 nM. Then `CCCCCCCCOc1ccc(Nc2ncc(Oc3cccnc3)s2)cc1C(F)(F)F` [Cmp 144, N-(4-(octyloxy)-3-(trifluoromethyl)phenyl)-5-(pyridin-3-yloxy)thiazol-2-amine], with under 1000 nM; and `CCCCCCCC(=O)c1ccc(Nc2nc(-c3cccnc3)c(F)s2)cc1C(F)(F)F` [Cmp 215, 1-(4-(5-fluoro-4-(pyridin-3-yl)thiazol-2-ylamino)-2-(trifluoromethyl)phenyl)octan-1-one], with under 1000 nM; and `CCCCCCCCOc1cc(Nc2nc(-c3cccnc3)cs2)ccc1C(F)(F)F` [Cmp 68, N-(3-(octyloxy)-4-(trifluoromethyl)phenyl)-4-(pyridin-3-yl)thiazol-2-amine], with under 1000 nM. The figure for `COc1ncc(-c2csc(Nc3ccc(Oc4ccc(Cl)cc4)c(C(F)(F)F)c3)n2)cn1` [Cmp 54, N-(4-(4-chlorophenoxy)-3-(trifluoromethyl)phenyl)-4-(2-methoxypyrimidin-5-yl)thiazol-2-amine] is under 1000 nM; for `CCCCCCCCOc1ccc(Nc2nc(-c3cccnc3)cs2)cc1C(=O)O` [Cmp 155, 2-(octyloxy)-5-(4-(pyridin-3-yl)thiazol-2-ylamino)benzoic acid] it is over 10000 nM; for `CCCCCCCCOc1ccc(Nc2ncc(Sc3ccncc3)s2)cc1C(F)(F)F` [Cmp 146, N-(4-(octyloxy)-3-(trifluoromethyl)phenyl)-5-(pyridin-4-ylthio)thiazol-2-amine] it is 1000 to 10000 nM.

Consider `CCCCCCCCOc1ccc(Nc2nc(-c3cnc(OC)nc3)c(CN(C)C)s2)cc1C(F)(F)F` [Cmp 121, 5-((dimethylamino)methyl)-4-(2-methoxypyrimidin-5-yl)-N-(4-(octyloxy)-3-(trifluoromethyl)phenyl)thiazol-2-amine], for which the EC50 fell in the range of 1000 to 10000 nM. With `CCCCCCCCC1Cc2ccc(Nc3nc(-c4cccnc4)c(F)s3)cc2O1` (stereo not shown) [Cmp 129, 5-fluoro-N-(2-octyl-2,3-dihydrobenzofuran-6-yl)-4-(pyridin-3-yl)thiazol-2-amine], the EC50 is under 1000 nM. Turning to `CCCCCCCCc1ccc(N(C)c2nc(-c3cccnc3)c(F)s2)cc1C(F)(F)F` [Cmp 160, 5-fluoro-N-methyl-N-(4-octyl-3-(trifluoromethyl)phenyl)-4-(pyridin-3-yl)thiazol-2-amine], the EC50 was in the range of 1000 to 10000 nM. For `CCCCCCCCOc1ccc(N(N)c2nc(-c3cccnc3)cs2)cc1C(F)(F)F` [Cmp 44, 2-(1-(4-(octyloxy)-3-(trifluoromethyl)phenyl)hydrazinyl)-4-(pyridin-3-yl)thiazolo], the EC50 was under 1000 nM. Regarding `Cc1ccc(CCCCCc2ccc(Nc3nc(-c4cccnc4)cs3)cc2C(F)(F)F)cc1` [Cmp 73, 4-(pyridin-3-yl)-N-(4-(5-p-tolylpentyl)-3-(trifluoromethyl)phenyl)thiazol-2-amine], the EC50 is under 1000 nM. The figure for `CCCCCCCCOc1ccc(Nc2nc(-c3cccnc3)c(F)s2)cc1C(C)=O` [Cmp 149, 1-(5-(5-fluoro-4-(pyridin-3-yl)thiazol-2-ylamino)-2-(octyloxy)phenyl)ethanone] is under 1000 nM. For `CCCCCCCCOc1ccc(Nc2nc(-c3ccncc3)c(F)s2)cc1C(F)(F)F` [Cmp 166, 5-fluoro-N-(4-(octyloxy)-3-(trifluoromethyl)phenyl)-4-(pyridin-4-yl)thiazol-2-amine], the EC50 was under 1000 nM. Then `CCCCCCCCc1ccc(Nc2nc(-c3cncc(C#N)c3)cs2)cc1C(F)(F)F` [Cmp 180, 5-(2-(4-octyl-3-(trifluoromethyl)phenylamino)thiazol-4-yl)nicotinonitrile], with under 1000 nM.
